Series [1] in a line: in vivo. As to conditions: Wistar, rat, plasma, po, 140 mg/kg.
Description: AUC (0 to infinity) in Wistar rat plasma at 140 mg/kg, po
Series [2] deals with Rattus norvegicus. In words: AUC (0 to infinity) in Wistar rat plasma at 35 mg/kg, iv. The series is classed as ADME, organism-based. More on the design: time infinity, dose 35 mg/kg, route intravenous. As to conditions: in vivo.
Series [3] in a line: Tmax in Wistar rat plasma at 35 mg/kg, iv. More on the design: dose 35 mg/kg, route intravenous. The series is classed as ADME, organism-based.
The nature of series [4]: in vivo. As to conditions: Wistar, rat, plasma, po, 140 mg/kg. The source holds these as a separate data set.
Description: Tmax in Wistar rat plasma at 140 mg/kg, po
Series [5] can be described thus: in vivo. As to conditions: Wistar, rat, plasma, po, 140 mg/kg. The source holds these as a separate data set.
Description: Cmax in Wistar rat plasma at 140 mg/kg, po
Series [6] is described as follows: Cmax in Wistar rat plasma at 35 mg/kg, iv. The series is classed as ADME, organism-based. More on the design: dose 35 mg/kg, route intravenous.
Series [7] can be described thus: Chemical stability in 15 mM hydrogen peroxide solution at pH 7.4 at 37 degC assessed as half life by HPLC. The series is classed as physicochemical.
Series [8] has as its system Rattus norvegicus. In words: AUC (0 to infinity) in Wistar rat plasma assessed as metformin level at 100 mg/kg, po. More on the design: time infinity, dose 100 mg/kg, route oral. As to conditions: in vivo. The series is classed as ADME, organism-based.
The nature of series [9]: Chemical stability in 50 mM acetate buffer at pH 4.0 at 37 degC assessed as compound degradation to metformin after 4 weeks by HPLC. The series is classed as physicochemical. As to conditions: read-out: Activity.
A short description of series [10]: Chemical stability in 50 mM borate buffer at pH 9.0 at 37 degC assessed as compound degradation to metformin after 4 weeks by HPLC. The series is classed as physicochemical. As to conditions: read-out: Activity.
Series [11] is described as follows: Octanol-water distribution coefficient, log D at pH 7.4 by HPLC. The series is classed as physicochemical.
Series [12] relates to Rattus norvegicus. In words: Cmax in Wistar rat plasma assessed as metformin level at 67 mg/kg, iv. The series is classed as ADME, organism-based. Further details: dose 67 mg/kg, route intravenous. As to conditions: in vivo.
The nature of series [13]: Octanol-water distribution coefficient, log D at pH 4 by HPLC. The series is classed as physicochemical.
Series [14] in a line: Chemical stability in 50 mM HCl buffer at pH 1.0 at 37 degC assessed as half life by HPLC. The series is classed as physicochemical.
Series [15] concerns Rattus norvegicus. In words: Tmax in Wistar rat plasma assessed as metformin level at 67 mg/kg, iv. The series is classed as ADME, organism-based. As to conditions: in vivo. More on the design: dose 67 mg/kg, route intravenous.
In series [16] the test system is Rattus norvegicus. The experiment in a line: Oral bioavailability in Wistar rat assessed as metformin level at 100 mg/kg. The series is classed as ADME, organism-based. As to conditions: in vivo.
Series [17] is described as follows: Metabolic stability in human serum assessed as compound degradation to metformin after 24 hrs by HPLC. The series is classed as ADME, cell-free. As to conditions: read-out: Activity.
Series [18] can be described thus: Metabolic stability in 20% rat liver homogenate assessed as compound degradation to metformin after 24 hrs by HPLC. The series is classed as ADME, tissue-based. As to conditions: 20% liver homogenate, read-out: Activity.
Series [19] can be described thus: Chemical stability in 50 mM phosphate buffer at pH 7.4 at 37 degC assessed as compound degradation to metformin after 4 weeks by HPLC. The series is classed as physicochemical. As to conditions: read-out: Activity.
Series [20] deals with Rattus norvegicus. In words: Cmax in Wistar rat plasma assessed as metformin level at 100 mg/kg, po. The series is classed as ADME, organism-based. More on the design: dose 100 mg/kg, route oral. As to conditions: in vivo.
For series [21], the system named is Rattus norvegicus. The experiment in a line: AUC (0 to infinity) in Wistar rat plasma assessed as metformin level at 67 mg/kg, iv. The series is classed as ADME, organism-based. Further details: time infinity, dose 67 mg/kg, route intravenous. As to conditions: in vivo.
Series [22] deals with Rattus norvegicus. The experiment in a line: Tmax in Wistar rat plasma assessed as metformin level at 100 mg/kg, po. The series is classed as ADME, organism-based. Further details: dose 100 mg/kg, route oral. As to conditions: in vivo.
The nature of series [23]: Metabolic stability in rat serum assessed as compound degradation to metformin after 24 hrs by HPLC. The series is classed as ADME, cell-free. As to conditions: read-out: Activity.
Another series has as its system Serum. In words: Metabolic stability in human serum assessed as half life by HPLC. The series is classed as ADME, cell-free.
The nature of series [24]: Metabolic stability in rat serum assessed as half life by HPLC. The series is classed as ADME, cell-free.
Series [25] in a line: Metabolic stability in 20% rat liver homogenate assessed as half life by HPLC. As to conditions: 20% liver homogenate. The series is classed as ADME, tissue-based.
Series [26] can be described thus: Chemical stability in 50 mM acetate buffer at pH 4.0 at 37 degC assessed as half life by HPLC. The series is classed as physicochemical.
Series [27] in a line: Chemical stability in 50 mM phosphate buffer at pH 7.4 at 37 degC assessed as half life by HPLC. The series is classed as physicochemical.
A short description of series [28]: Chemical stability in 50 mM borate buffer at pH 9.0 at 37 degC assessed as half life by HPLC. The series is classed as physicochemical.

As a reminder, the AUC(0-inf) is total exposure, with the tail of the curve extrapolated. Read a high AUC(0-inf) as more exposure. By AUC is commonly meant concentration integrated over time. As usually defined, the Tmax is the time from dosing to the highest level. In general, Cmax refers to the highest concentration seen after dosing. As usually defined, the half-life is how long it takes for the measured level to halve. The logD is lipophilicity at a set pH, counting ionised and neutral species. Read a high logD as higher lipophilicity.

In “in vivo [1]”, `CN(C)C(=N)N=C(N)N` [METFORMIN] gave an AUC(0-inf) of 4820 ng·h/mL. The same molecule yielded an area under the curve (AUC) with Rattus norvegicus [2] of 170 µg·min/mL. Moreover, the results for the time to peak (Tmax) (in [3]; in “in vivo [4]”) were 1 min and 50 min, respectively. Further, the Cmax in the series “in vivo [5]” was found to be 1700 ng/mL; in series [6], 20900 ng/mL.
In the case of `CN(C)C(=N)/N=C(\N)NSC1CCCCC1`, the half-life was found to be 35.8 min in series [7] and 478 min in [14]. Also, the values for the area under the curve (AUC) in the series with Rattus norvegicus [8] and in the series on Rattus norvegicus [21] were 275 µg·min/mL and 291 µg·min/mL, respectively. Also, the degraded at 672 h was 10% in series [9], 40% in series [10] and 10% in [19]. For the same molecule, the log distribution coefficient (logD) was 0.49 in [11] and -1.1 in series [13]. Besides, the figures for the Cmax in the series on Rattus norvegicus [12] and in the series on Rattus norvegicus [20] were 3000 ng/mL and 1300 ng/mL, respectively. Moreover, the results for the Tmax with Rattus norvegicus [15] and with Rattus norvegicus [22] were 10 min and 60 min, respectively. Besides, in the series on Rattus norvegicus [16], the F amounted to 64.5%. Besides, the metabolised at 24 h in series [17], in series [18] and in series [23] was 10% each time.
In the case of `CN(C)C(=N)/N=C(\N)NSc1ccccc1`, the t1/2 in the series with Serum turned out to be 0.0623 min. In addition, the half-life in [7] is 14.2 min; in series [24] it was 36.8 min; in [25], 0.25 min; in series [26] it was 78.6 h; in [14], 12.1 min; in series [27], 78.6 h. Also, the half-life in series [28] was 18.1 min. In addition, the results for the logD in [11] and in [13] were -0.76 and -0.7, respectively.

The record behind these values is ChEMBL document CHEMBL1158453 (J Med Chem, 2009).
